By melting point is commonly meant the temperature of the solid-liquid transition.

`COc1ccc(Cl)cc1C(=O)NC1Cc2ccc(S(=O)(=O)NC(=O)NCC3CCCC3)cc2C1` (configuration not stated) came in with a melting point of 194 to 196 °C.

For `COc1ccc2oc(C(C)N(O)C(N)=O)cc2c1` (configuration not stated), the melting point was in the range of 149 to 151 °C.

`CCOC(=O)CCn1c(=O)[nH]c2ccccc2c1=O` returned a melting point of 192 to 194 °C.

Compound `O=C(O)CCCNC(=O)NCCCCC1CCSS1` (configuration not stated) showed a melting point of 94 to 99 °C.

For `CC(=O)OCC(=O)C1(O)CCC2C3CC=C4C=C(OC(C)=O)C=CC4(C)C34OC4CC21C` (configuration not stated), the melting point worked out at 194 °C.

For the compound `CC(=O)SCC(CC1CN(Cc2ccccc2)CCO1)C(=O)Nc1cccc(C(=O)O)c1` (configuration not stated), the melting point lay in the range of 103 to 105 °C.

With `CC(C)(O)C#Cc1ccc(-c2ccc(F)cc2)cc1`, the melting point was 118 °C.

Compound `OCc1ccccc1-c1ccc2nc(-c3ccc(Cl)cc3)cn2c1` displayed a melting point of 164 to 166 °C.

Consider `O=C(O)c1cn(CCc2ccccc2)c2cc(C3CCCC3)nn2c1=O`, for which the melting point was 198 to 200 °C.

Turning to `COC(C)(C)C(Cl)=NO`, the melting point is 95 °C.

With `COc1ccc(C(=O)CC2CCN(CCn3c(=O)[nH]c4ccccc43)CC2)cc1`, the melting point was found to be 156 °C.

`COc1ccc(C#Cc2cccc(C(C)N(O)C(N)=O)c2)cc1` (configuration not stated) had a melting point of 141 to 142 °C.

In turn, `CC(C)(C)c1cc(SC(Sc2cc(C(C)(C)C)c(O)c(C(C)(C)C)c2)Sc2cc(C(C)(C)C)c(O)c(C(C)(C)C)c2)cc(C(C)(C)C)c1O` gave a melting point of 217 to 220 °C.

For the compound `COP(=O)(O)CNc1cc(Cl)c(Oc2ccc(O)c3ccccc23)c(Cl)c1`, the melting point is 85 to 87 °C.

`Cc1ccc2c(c1)c(N1CCNCC1)c(C#N)c(=O)n2C` gave a melting point of 274 °C.

Turning to `O=C(Nc1cccnc1)N1CCN(c2nccc(-c3cc(F)cc(F)c3)n2)CC1`, the melting point was 231 to 232 °C.

`CC(C)(C)c1cc(C(=O)Nc2nc(C(=O)O)cs2)cc(C(C)(C)C)c1O` returned a melting point of 291 to 293 °C.

On to `Cc1ccc(-c2cccs2)cc1C`, for which the melting point lay in the range of 49 to 51 °C.

In turn, `CC(C)NS(=O)(=O)c1cccc(NC(=O)c2cnn3c(C(F)F)cc(-c4ccc(C(F)(F)F)cc4)nc23)c1` came in with a melting point of 229 °C.

`COc1cc(COc2nn(Cc3ccccc3)cc2C=O)ccc1OCc1nc(-c2ccco2)oc1C` gave a melting point of 139 to 140 °C.

Compound `Cc1noc(C)c1S(=O)(=O)n1c(Br)nc(Br)c1Br` came in with a melting point of 165 to 170 °C.

`CCOC(=O)Cn1cc(Cc2nc3c(F)c(F)cc(F)c3s2)c2ccc(CC)nc21` had a melting point of 114 to 115 °C.

On to `O=C1NC(=O)C(S(=O)(=O)c2ccc(F)cc2)S1` (configuration not stated), for which the melting point was in the range of 190 to 196 °C.

`O=C(Nc1ccc2ccc(Oc3ccccc3)nc2n1)c1cccc(Br)c1` gave a melting point of 194 °C.

For the compound `COc1ccc(NC(=O)Oc2cccc3ccoc23)cc1`, the melting point fell in the range of 157 to 159 °C.

For the compound `Cc1c(C)c(N2C(=O)c3ccccc3C2=O)c(C)c2c1OC(C)(C)C2`, the melting point lay within 166 to 168 °C.

Compound `CCOC(=O)C1=C(C)NC(C=O)=C(C(=O)OCC)C1c1cccc([N+](=O)[O-])c1` (configuration not stated) returned a melting point of 130 to 133 °C.

`[O-][N+]1=C(c2ccccc2F)c2cc(Cl)ccc2-c2ncncc2C1` gave a melting point of 185 to 186 °C.

`O=C(O)[C@H]1CC[C@@H](C(=O)N(Cc2ccccc2)OCc2ccccc2)C1` (relative stereo) showed a melting point of 118 to 120 °C.

`O=C1NCCc2c(-c3cccc(Oc4ccc(F)cc4)c3)[nH]c3cccc1c23`: the melting point was 240 to 241 °C.

For the compound `Nc1c([N+](=O)[O-])cc(Br)c2c1CN(Cc1ccc(C(F)(F)F)cc1)CC2`, the melting point was in the range of 119 to 120 °C.

Turning to `CC(C(=O)N1CCCc2ccccc21)N(C(=O)CN1C(=O)c2ccccc2C1=O)c1ccccc1` (racemic), the melting point was 191 °C.

The compound `Cn1nnnc1NC(=O)c1cccc2cccnc12` displayed a melting point of 224 to 225 °C.

The compound `Cc1cc(C)n(C(=O)C(NS(=O)(=O)c2ccc(Cl)cc2)c2ccccc2)n1` (configuration not stated) registered a melting point of 160 °C.

Consider `COc1ccc2c(c1)C(=O)N(c1cc3ccn(C)c3cn1)C2`, for which the melting point was in the range of 205 to 210 °C.

`Cc1onc(NS(=O)(=O)c2cccs2)c1Br` returned a melting point of 156 to 158 °C.

Regarding `C#Cc1cccc(Nc2ncnc3[nH]cc(-c4cccs4)c23)c1`, the melting point is 230 to 232 °C.

For `Cc1nnc(NCCCN2CCN(C)CC2)c2cc3ccccn3c12`, the melting point came out at 60 °C.

For `Cc1cc(OC2CCCC2)ccc1NC(=O)OC(C)(C)C`, the melting point was 75 to 77 °C.

With `CC(C)(C)N1C(=O)c2ccc(C(=O)Cl)cc2S1(=O)=O`, the melting point was in the range of 185 to 186 °C.

Take `CCc1ccccc1NC(=O)c1ccccc1CN1C(=O)C2(COc3cc4c(cc32)CCO4)c2ccccc21` (configuration not stated): the melting point fell in the range of 184 to 186 °C.

Regarding `Cc1cncc(-c2ccc(OC3SCC(O)C(O)C3O)cn2)c1` (configuration not stated), the melting point was in the range of 165 to 166 °C.

Compound `COC(=O)CC1Oc2ccccc2NC1=O` (configuration not stated) displayed a melting point of 140 °C.

Consider `CCOC(=O)C1=C(C)NC(C)=C(C(=O)OC)C1c1ccc(SC)cc1` (configuration not stated), for which the melting point came out at 163 °C.

The compound `COC(=O)NCCCn1c(-c2ccc(Br)cc2)csc1=Nc1ccccc1` showed a melting point of 132 to 134 °C.

Regarding `COc1ccc(NS(=O)(=O)c2ccc([N+](=O)[O-])cc2[N+](=O)[O-])cc1`, the melting point lay in the range of 115 to 116 °C.

As for `CC1(C)[C@@H](CN2CCCCC2)CC[C@@]1(C)NCC(=O)N1C[C@@H](F)C[C@H]1C#N`, the melting point was in the range of 100 to 103 °C.

Regarding `CC1(C)CS(=O)(=O)CC(C)(C)N1N=O`, the melting point stood at 184 °C.

`COc1ccc(-c2c(Cl)c(CNC(C)=O)nc3sc4c(c23)CCN(Cc2ccccc2)C4)cc1OC` came in with a melting point of 172 to 174 °C.

For the compound `CC(O)(CCCC(F)(F)C(F)(F)C(F)(F)C(F)(F)C(F)(F)C(F)(F)F)CCCC(F)(F)C(F)(F)C(F)(F)C(F)(F)C(F)(F)C(F)(F)F`, the melting point fell in the range of 46 to 47 °C.

`CCCc1nn(C)c2c1N=C(c1cc(/C=C/C(=O)N(C)C)ccc1OCC)NC2` came in with a melting point of 219 to 221 °C.

For the compound `O=c1sc(CO)c(C(F)(F)F)n1-c1ccccc1`, the melting point stood at 135 °C.

For `Cc1[nH]c(C(=O)NCC2=NNC(=O)CC2)c(C)c1-c1nc2ccc(C(=O)c3ccccc3)cc2[nH]1`, the melting point is 287 °C.

In turn, `CSC(N)=C(Cc1ccccc1)[N+](=O)[O-]` came in with a melting point of 112 °C.

As for `CC(=O)Oc1c(C)cc(C=CC(=O)Nc2cnc3c(C)cc(C)cc3c2-c2ccccc2Cl)c(C)c1C`, the melting point was 233 to 234 °C.

Compound `CC(O)(c1ccccc1)C1CCN1C(c1ccccc1)c1ccccc1` (configuration not stated) had a melting point of 152 to 154 °C.

Turning to `CON=C(C(=O)O)c1nc(N)c(Cl)cc1Cl`, the melting point was 139 to 144 °C.

`N#Cc1nn(-c2c(Cl)cccc2Cl)c(N)c1-c1ccco1` yielded a melting point of 223 °C.

For `O=C(O)c1cn(-c2ccc(F)cc2F)c2c(F)c(N3Cc4ccccc4C3)c(F)cc2c1=O`, the melting point lay within 264 to 268 °C.

`Cc1ccc(O)c(C)c1C=O`: the melting point was 159 to 165 °C.

As for `CC(=O)OC(OC(C)=O)c1ccc2occ(C#N)c(=O)c2c1`, the melting point fell in the range of 185 to 186 °C.

`Cc1ccc(-c2nc(C)cc(Oc3ccccc3)n2)cc1`: the melting point was 90 to 91 °C.

Turning to `C#C/C(=C\c1cccnc1)c1c[nH]c2ccc(OC)cc12`, the melting point was determined as 136 °C.

The compound `O=[N+]([O-])c1cccc(OCc2ccccc2)c1Cl` displayed a melting point of 94 °C.

`COC(=O)C(C)(C)Cc1ccc(-c2ccc(CC(C)(C)C(=O)OC)cc2)cc1` showed a melting point of 68 to 70 °C.

Turning to `CC(=O)OC(C)c1ccccc1CS(N)(=O)=O` (configuration not stated), the melting point was in the range of 135 to 140 °C.

Turning to `O=C1CCN(C(=O)C(F)(F)F)CC1`, the melting point came out at 68 °C.

On to `COc1ccc2[nH]c(C(=O)NCCN(C)C)c(-c3ccccc3F)c2c1`, for which the melting point was in the range of 184 to 186 °C.

The compound `FC(F)(F)c1ccc2nc(N3CCN(Cc4c(Cl)cccc4Cl)CC3)[nH]c2c1` displayed a melting point of 254 to 256 °C.

Regarding `Cc1nc2ccc3c(c2nc1C)OC(CN1CC=C(c2c[nH]c4ccc(F)cc24)CC1)CO3` (configuration not stated), the melting point fell in the range of 138 to 141 °C.

Take `Cc1ccc2c(c1)C(O)(c1ccc3c(c1)OCO3)C(=O)N2Cc1ccc(Cl)cc1` (configuration not stated): the melting point was 122 to 124 °C.

Compound `O=C1c2ccccc2C(=O)N1CCCOc1cccc2c(N3CCCCC3)nccc12` returned a melting point of 146 to 147 °C.

On to `CCN(C(=O)Nc1ccc(OC(F)(F)F)cc1)C1Cc2ccc(SC(C)(C)C(=O)O)cc2C1` (configuration not stated), for which the melting point is 73 to 77 °C.

The compound `O=C(Nc1nn[nH]n1)c1cnc(N2CCOCC2)nc1OC1CCCCCC1` yielded a melting point of 287 °C.

In turn, `O=C(CC(=O)C(F)(F)F)c1nc2ccc(F)cc2s1` displayed a melting point of 175 to 178 °C.

Regarding `Cn1c(C(F)(F)F)cc(F)c(-c2ccc(Cl)cc2)c1=O`, the melting point was 120 to 122 °C.

`c1ccc(-c2nc3ccccc3n2-c2ccccc2)cc1` had a melting point of 105 to 107 °C.

For the compound `CCOP(=O)(OCC)C(O)=C1CCc2cc(CC3CCCC3)c(Cl)cc21`, the melting point stood at 126 °C.

`CCn1cc(-c2ccccc2)c(=O)c(-c2ccccc2)n1` gave a melting point of 124 to 125 °C.

As to `CC(C)(C)C(=O)Nc1cc(Cl)c([N+](=O)[O-])cc1Cl`, the melting point lay in the range of 142 to 145 °C.

Compound `N#CCc1ccc(Oc2ccc3c(c2)S(=O)(=O)NC2CCCN32)cc1` (configuration not stated) gave a melting point of 156 to 158 °C.

Compound `CS(=O)(=O)c1nccc(-c2ccc(Oc3ccc(F)cc3)cc2)n1` registered a melting point of 146 to 147 °C.

In the case of `O=C(CN1C(=O)C2(COc3cc4c(cc32)CCO4)c2c(Br)cccc21)Nc1ccccc1F` (configuration not stated), the melting point is 245 to 246 °C.

For the compound `CC(C)(C)c1ccc(-c2ccc(C(=O)CCC(=O)O)cc2)cc1`, the melting point lay within 172 to 174 °C.

`Cc1cccc(C)c1CNc1cc(Br)cc2c1nc(C)n2O` had a melting point of 277 °C.

As for `COc1ccc(C(=O)C=CN(C)C)cc1OC`, the melting point was in the range of 124 to 125 °C.

`CCOP(=O)(/C=C/c1cn(-c2ccccc2)nc1OCc1ccccc1)OCC` had a melting point of 89 to 90 °C.

Values taken from a melting point compilation (Tetko et al.; mined from patent text by program, amines drawn as free bases though some values may be those of a salt).
